The assay addresses T1, sEH (Mus musculus, UniProt P34914).
T1 construct: pilot in vivo study of the compound in male wild-type C57BL6/J mice; from tissue; host or cells: male wild-type C57BL/6J mice, in vivo; read-out in plasma
T1 sequence (P34914 1-554): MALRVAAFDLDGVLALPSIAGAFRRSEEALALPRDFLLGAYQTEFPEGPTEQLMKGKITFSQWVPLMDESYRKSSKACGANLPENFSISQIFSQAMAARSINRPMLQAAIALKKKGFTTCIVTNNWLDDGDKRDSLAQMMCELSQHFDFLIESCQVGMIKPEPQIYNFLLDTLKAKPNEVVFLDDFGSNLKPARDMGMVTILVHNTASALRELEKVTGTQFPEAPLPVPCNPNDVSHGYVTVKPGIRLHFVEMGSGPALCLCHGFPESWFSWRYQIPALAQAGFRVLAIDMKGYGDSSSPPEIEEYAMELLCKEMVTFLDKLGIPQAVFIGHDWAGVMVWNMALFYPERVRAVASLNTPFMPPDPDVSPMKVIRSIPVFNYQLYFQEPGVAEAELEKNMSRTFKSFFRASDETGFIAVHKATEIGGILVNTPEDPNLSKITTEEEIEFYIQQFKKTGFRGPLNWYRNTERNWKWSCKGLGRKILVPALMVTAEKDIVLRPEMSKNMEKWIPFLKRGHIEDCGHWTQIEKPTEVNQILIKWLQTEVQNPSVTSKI
The assay is described as follows: EET/DHET ratio in mouse plasma. It is filed as in vivo. The settings on record: mice, 10 mg/kg p.o., 8 h post dose. As to the method: To record a pharmacokinetic profile and to evaluate pharmacodynamic data concerning FXR activation and sEH inhibition in vivo, six mice received a single dose of 57 (p.o., 10 mg/kg body weight). Three additional animals served as vehicle control.
To evaluate pharmacodynamic effects of 57, mouse plasma was analyzed for EET/DHET ratio, and FXR target gene expression was determined in mouse livers 8 hours post application (FIG. 5B). […] Expression of the PPARγ target gene fatty acid transport protein (FATP) was not affected by 57 in vivo.
Blood and liver sampling: At six time points (15 min, 30 min, 60 min, 120 min, 240 min and 480 min after application of 57), blood (20 μl) of the six restrained and conscious mice was obtained from the lateral tail vein. For the last time-point (480 min), mice were anesthetized under isoflurane and blood (˜500 μl) was obtained by retro-orbital puncture. A part of the blood was centrifuged (6000 rpm, 10 min, +4° C.) to obtain plasma for quantification of EET/DHET ratio and stored at −80° C. until further evaluation. […]
EET/DHET ratio analysis from mouse plasma samples (Determination of Epoxyeicosatrienoicacids (EETs) and their metabolites Dihydroxyepoxyeicosatrienoicacids (DHETs) by LCMS/MS): 8.9-EET, 11.12-EET and their dehydro-metabolites content of the extracted samples were analyzed employing liquid chromatography tandem mass spectroscopy (LC-MS/MS). […]

Regarding `CC(C)(C)c1ccc(C(=O)NCc2ccc(NS(C)(=O)=O)cc2Cl)cc1` [compound 57, 4-(tert-Butyl)-N-(2-chloro-4-(methylsulfonamido)benzyl)benzamide], the “11,12-EET/11,12-DHET ratio in plasma” value (vehicle 0.15±0.01) amounted to 0.25±0.03. Moreover, the “8,9-EET/8,9-DHET ratio in plasma” value (vehicle 0.40±0.03) was 0.63±0.03.

Source of the values: patent publication US20200172473A1, “DUAL MODULATORS OF FARNESOID X RECEPTOR AND SOLUBLE EPOXIDE HYDROLASE” (JOHANN WOLFGANG GOETHE-UNIVERSITÄT FRANKFURT AM MAIN, priority 2017, published 2020).
